Measured values from PMC5111108, “An insecticide resistance-breaking mosquitocide targeting inward rectifier potassium channels in vectors of Zika virus and malaria” (Scientific Reports, 2016).
Entries after “also recorded” stand apart in the source; their conditions may differ. Read-outs that look alike come from different tables or passages of the source.

Target: T1, AnKir1 (Anopheles gambiae, UniProt A0A075M2J8)
T1 sequence (A0A075M2J8 1-555): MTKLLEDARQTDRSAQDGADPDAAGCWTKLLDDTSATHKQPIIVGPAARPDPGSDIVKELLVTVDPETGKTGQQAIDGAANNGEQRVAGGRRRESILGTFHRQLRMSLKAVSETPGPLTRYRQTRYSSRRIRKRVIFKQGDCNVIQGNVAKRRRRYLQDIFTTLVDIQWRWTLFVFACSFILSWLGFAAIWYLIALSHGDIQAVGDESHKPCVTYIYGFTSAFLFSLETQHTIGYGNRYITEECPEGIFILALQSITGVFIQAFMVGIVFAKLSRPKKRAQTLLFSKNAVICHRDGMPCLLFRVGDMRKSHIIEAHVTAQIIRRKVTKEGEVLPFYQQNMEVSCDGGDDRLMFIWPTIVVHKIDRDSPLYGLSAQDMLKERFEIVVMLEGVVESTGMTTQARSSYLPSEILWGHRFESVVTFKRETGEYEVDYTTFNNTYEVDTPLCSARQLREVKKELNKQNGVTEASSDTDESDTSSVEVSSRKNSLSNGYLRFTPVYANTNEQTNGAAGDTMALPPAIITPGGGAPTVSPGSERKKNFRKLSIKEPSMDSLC
Test: Tl+ flux assay in T-REx-HEK293 cells expressing AnKir1
Assay type: cell-based
Procedure: Tl^+ flux assays were performed essentially as described previously. Briefly, stably transfected T-Rex-HEK-293 cells expressing AnKir1 channels were cultured overnight in 384-well plates (20,000 cells/20 μL/well black-walled, clear-bottomed BD PureCoat amine-coated plates (BD, Bedford, MA) with a plating media containing DMEM, 10% dialyzed FBS and 1 μg/mL tetracycline. Approximately twenty-four hours after cell plating, the cell culture medium was replaced with a dye-loading solution containing assay buffer (Hanks Balanced Salt Solution with 20 mM HEPES, pH 7.3), 0.01% (w/v) Pluronic F-127 (Life Technologies, Carlsbad, CA), and 1.2 μM of the thallium-sensitive dye Thallos-AM (TEFlabs, Austin, TX). Following 1 hr incubation at room temperature, the dye-loading solution was washed from the plates and replaced with 20 μL/well of assay buffer.
Tl+ flux assay development
Tl+ flux assays were performed essentiall y as described previousl y (1). Briefl y, stabl y transfect ed T-Rex -HEK- 293- AnKir1 cells were cultured overnight in 384-well plates in media containing DMEM, 10% dial yz ed FBS and 1μg/ m L tetrac ycline to induce channel expression
(Fig. S1A). The next day, the cell culture medium was replaced with a dye-loading solution containing assay buffer (Hanks Balanced Salt Solution with 20 mM HEPES, pH 7.3), 0.01% (w/v) Pluronic F-127 (Li fe Technologies, Carlsbad, CA), and 1.2 μM of the thallium-sensitive dye Thallos-AM (TEFl abs, Austin, TX). Following 1 hr incubation at room temperature, the d ye-loading solution was washed from the plates and replaced with 20 μ L/well of assa y buffer. The plates were transferred t o a Ham amatsu Functional Drug Screening System 6000 (FDSS6000; Hamamatsu, Tokyo, J apan) where 20 μ L/well of test compounds in assay buffer (as prepared below) were added and allowed to incubate with the cells for 20 min. After the incubation period, a baseline recordi ng was collected at 1 Hz for 10 s (excitation 470 ± 20 nm, emission 540 ± 30 nm) followed by a t hallium stimulus buffer addition (10 μL/well) and data collection for an additional 4 min. The Tl + stimulus buffer contains in (mM) 125 NaHCO3, 1.8 CaSO4, 1 MgSO4, 5 glucose, 12 Tl2SO4, 10 HEPES, pH 7.4. For Tl + flux assays on Kir2.x, Kir4.1 and Kir6.2/SUR1 ex pressing cells, the Tl+ stimulus buffer contained 1.8 mM Tl 2SO4. To ensure the small-molecule vehicle DMSO had no direct effect on An Ki r1-dependent Tl+ flux, the assa y’s tolerance to different doses of DMSO was evaluated (Fig. S1B). The robustness and reproducibility of the assay was determined by comparing Tl+ flux through tetracycline-induced and tetracycline-uninduced cells (Fig. S1C). The Z’ value was calculated as described previously (1 ), using the […]
Z’ = 1- (3SD p + 3SD n)/ |meanp + meann | where SD is standard deviation, p and n are control and uninduced flux values respectivel y.
To compare the effect of DMSO on An Kir1-mediated Tl+ flux, a one-way ANOVA was performed with a Tuke y’s multiple comparison test. Prism software (GraphPad Software) was used to generate CRC from Tl+ fl ux ..Half-inhibition concentration (IC50) values were calculated from fits using a four parameter logistic equation.
High-throughput screeni ng
The test compounds were transferred to daughter pol yprop ylene 384-well plates (G reiner Bio-One, Monroe, NC) using an Echo555 liquid handler (Labcyte, Sunnyvale, CA), and then diluted into assay buffer to generat e a 2X stock in 0.6% DMSO (0.3% final). For Tl+ flux assays on Kir6.2/SUR1 expressing cells, test compounds were diluted in assay buffer containing diazoxide (250 μM final) to induce channel activation. Concentration- response curves (CRCs) were gener ated b y screening compounds at 3-fold dilution series (1 nM - 30 μM).
Tl+ flux data were anal yzed as previousl y d escri bed (2, 3) using a combination of Excel (Microsoft Corp, Redmond, WA) with XLfit add-in (IDBS, Guildford, Surre y, UK), Ori ginPro […]

[1] = Tl+ flux assay, read-out: AnKir1 IC50 (Tl+ flux)
[2] = Tl+ flux, Tables S2/S3 and supplemental text, read-out: AnKir1 IC50

**Q.** How did the IC50 [1] turn out when `O=C(Cn1ncc2c1CCOC2)N1CCCc2ccccc21` [VU730] was run?
**A.** Its IC50 is 2.4 µM.

**Q.** `O=C1CCCc2c1ccn2CC(=O)N1CCCc2ccccc21` [Compound 4] was tested. Which IC50 [2] did it give?
**A.** Its IC50 is 12.1 µM.

**Q.** With `O=C(Cn1nc(C(F)(F)F)c2c1CCCC2)N1CCCc2ccccc21` [VU041, 1-(3,4-dihydroquinolin-1(2H)-yl)-2-(3-(trifluoromethyl)-4,5,6,7-tetrahydro-1H-indazol-1-yl)ethan-1-one] as the molecule, how does the “Hill-coefficient (Tl+ flux, AnKir1)” value (Tl+ flux CRC) read?
**A.** The value was 1.1.

**Q.** And the IC50 [1]?
**A.** Its IC50 is 2.5 µM.

**Q.** What about the IC50 [2] of the same molecule?
**A.** The IC50 was 2.3 µM.

**Q.** Which IC50 [2] does the source give for `O=C(Cn1nc(C(F)(F)F)c2c1CCCC2)N1CCCC(c2ccccc2)C1` (stereo not shown) [Compound 12] here?
**A.** The IC50 was 5.6 µM.

**Q.** Which IC50 [2] does the source give for `CC1CC(C)CN(C(=O)Cn2nc(C(F)(F)F)c3c2CCCC3)C1` (stereo not shown) [Compound 13] here?
**A.** The IC50 was 4.5 µM.

**Q.** Which results are given for `O=C(Cn1nc(C(F)(F)F)c2c1CCCC2)NC1CCC1` [VU937]?
**A.** AnKir1 IC50 (Tl+ flux, Tables S2/S3 and supplemental text, listed as 18): not tolerated; also recorded: inactive; inhibition at 30 µM (at 30 μM, read-out: inhibition of AnKir1-mediated Tl+ flux): < 50%

**Q.** For `O=C(Cn1nc(C(F)(F)F)c2c1CCCC2)N1CCCC2CCCCC21` (stereo not shown) [Compound 9], which IC50 [2] is on record?
**A.** The IC50 was 6.7 µM.
